In patent publication US20220332764A1, “T CELL EPITOPES OF HCMV AND USES OF THEREOF” (EBERHARD KARLS UNIVERSITÄT TÜBINGEN, priority 2019, published 2022):
Where “and” joins values, the source holds several entries; their conditions need not be identical. Equal entries are not always repeated. Where two headings read alike, the source gives them in different places.

How the values were obtained:
[1] = tested on: CD8+ T cells of HLA-matched healthy donors; details: for Tetramer-staining: after 12 day amplification
[2] = tested on: PBMCs of healthy HCMV-seropositive donors; assay: ex vivo IFNγ ELISpot without prestimulation; type: cell-based, human; details: for % Positive donors (ex vivo): IFNγ ELISpot ex vivo, donors previously tested positive; for ELISpot response rate (ex vivo): donors positively tested in ELISpots with 12d stimulation
Excerpt: (§1) PHA was used as positive control.

[3] = tested on: CD8+ / CD4+ T cells of donor PBMCs; assay: Intracellular cytokine staining (ICS; IFNγ, TNFα, CD107a); type: cell-based, human; details: for Intracellular cytokine staining: responding T-cell subset after peptide stimulation
Excerpt: PHA was used as positive control. […] (Cytofix/Cytoperm, BD Biosciences).

[4] = tested on: PBMCs of healthy HCMV-seropositive donors; assay: IFNγ ELISpot after 12 day stimulation (memory T-cell response); type: cell-based, human; details: for % Positive donors (after 12 days of stimulation): IFNγ ELISpot, HLA-matched seropositive donors; for ELISpot response rate (12 d stim.): 12-day amplification with IL-2 in vitro; for Positive donors as tested: positive / tested HLA-matched seropositive donors, positive: >10 spots/well and at least 3-fold negative control
Excerpt: as §1

Row | Sequence | % Positive donors (after 12 days of stimulation) [4] | Positive donors as tested [4] | also measured
1 | SPRHLYISL (listed as Human cytomegalovirus) [SEQ ID NO: 29] | 50.0% | 11/22 | Tetramer staining ([1]; Tested HLA B*07:02): positive; Tetramer-staining [1]: Positive; % Positive donors (ex vivo) [2]: 0.0%; ELISpot response rate (ex vivo) ([2]; Tested HLA B*07:02): 0.0; Intracellular cytokine staining [3]: CD4/CD8; ELISpot response rate (12 d stim.) ([4]; Tested HLA B*07:02): 50.0
2 | NTDFRVLELY (listed as Human cytomegalovirus) [SEQ ID NO: 55] | 56.3% | 9/16 | Tetramer staining ([1]; Tested HLA A*01:01): positive; Tetramer-staining [1]: Positive; % Positive donors (ex vivo) [2]: 0.0%; ELISpot response rate (ex vivo) ([2]; Tested HLA A*01:01): 0.0; Intracellular staining ([3]; Tested HLA A*01:01, responding T-cell subset): CD8; Intracellular cytokine staining [3]: CD8; ELISpot response rate (12 d stim.) ([4]; Tested HLA A*01:01): 56.3
3 | RSALGPFVGK (listed as Human cytomegalovirus) [SEQ ID NO: 69] | 40.0% | 6/15 | Tetramer-staining [1]: Positive; Intracellular cytokine staining [3]: CD8
4 | SLDRFIVQY (listed as Human cytomegalovirus) [SEQ ID NO: 57] | 35.7% | 5/14 | Intracellular cytokine staining [3]: CD4
5 | GLLAHIPALGV (listed as Human cytomegalovirus) [SEQ ID NO: 8] | 27.3% | 6/22 | % Positive donors (ex vivo) [2]: 0.0%
6 | IPMTFVDRDSL (listed as Human cytomegalovirus) [SEQ ID NO: 30] | 35.7% | 5/14 | –
7 | MPVTHPPEV (listed as Human cytomegalovirus) [SEQ ID NO: 95] | 13.3% | 2/15 | –
8 | FISSKHTL (listed as Human cytomegalovirus) [SEQ ID NO: 84] | 21.4% | 3/14 | –
9 | EEQDYRALL (listed as Human cytomegalovirus) [SEQ ID NO: 44] | 33.3% | 4/12 | –
10 | SPHPPTSVFL (listed as Human cytomegalovirus) [SEQ ID NO: 33] | 25.0% | 3/12 | –
11 | FFPKLQGNY (listed as Human cytomegalovirus) [SEQ ID NO: 23] | 16.7% | 2/12 | –
12 | GLDQYLESV (listed as Human cytomegalovirus) [SEQ ID NO: 18] | 7.8% | 1/13 | –
13 | LPYLSAERTV (listed as Human cytomegalovirus) [SEQ ID NO: 97] | 6.7% | 1/15 | –
14 | ALFNQLVFTA (listed as Human cytomegalovirus) [SEQ ID NO: 16] | 13.3% | 2/15 | –
15 | QLRSVIRAL (listed as Human cytomegalovirus) [SEQ ID NO: 85] | 14.3% | 2/14 | –
16 | SLFYRAVAL (listed as Human cytomegalovirus) [SEQ ID NO: 98] | – | 5/13 and 4/22 | % Positive donors (ex vivo) [2]: 12.5%; Binding to more than one HLA-I allotype ([4]; stimulated T cells of different donors harboring either of two well predicted alleles): potentially able to bind to more than one HLA-I allotype
17 | RVSQPSLIL (listed as Human cytomegalovirus) [SEQ ID NO: 32] | 26.7% | 4/15 | –
18 | RLFDLPVYC (listed as Human cytomegalovirus) [SEQ ID NO: 6] | 41.7% | 5/12 | –
19 | RPFPSTHQL (listed as Human cytomegalovirus) [SEQ ID NO: 31] | 30.8% | 4/13 | % Positive donors (ex vivo) [2]: 0.0%
20 | IPHNWFLQV (listed as Human cytomegalovirus) [SEQ ID NO: 92] | 33.3% | 5/15 | –
21 | RLQPNVPLV (listed as Human cytomegalovirus) [SEQ ID NO: 7] | 33.3% | 6/18 | % Positive donors (ex vivo) [2]: 0.0%
22 | KLGYRPHAK (listed as Human cytomegalovirus) [SEQ ID NO: 71] | 37.9% | 11/29 | Tetramer-staining [1]: Positive; Intracellular cytokine staining [3]: CD8
23 | SVRLPYMYK (listed as Human cytomegalovirus) [SEQ ID NO: 75] | 25.0% | 4/16 | –
24 | GLNERLLSV (listed as Human cytomegalovirus) [SEQ ID NO: 15] | 15.0% | 3/20 | –
25 | GLLAHIPAL (listed as Human cytomegalovirus) [SEQ ID NO: 13] | – | 2/11 | –

Row | Sequence | % Positive donors (after 12 days of stimulation) [4] | Positive donors as tested [4] | also measured
26 | FVEGPGFMRY (listed as Human cytomegalovirus) [SEQ ID NO: 56] | 35.7% | 5/14 | –
27 | IPVERQAL (listed as Human cytomegalovirus) [SEQ ID NO: 36] | 16.7% | 2/12 | –
28 | IAIPHFMVV (listed as Human cytomegalovirus) [SEQ ID NO: 91] | 33.3% | 5/15 | –
29 | ALYPEYIYTV (listed as Human cytomegalovirus) [SEQ ID NO: 14] | 16.7% | 3/18 | –
30 | ISENGNLQVTY (listed as Human cytomegalovirus) [SEQ ID NO: 63] | 15.0% | 3/20 | –
31 | APYLRDTL (listed as Human cytomegalovirus) [SEQ ID NO: 39] | 5.3% | 1/19 | –
32 | RVDPNLRNR (listed as Human cytomegalovirus) [SEQ ID NO: 74] | 33.3% | 5/15 | –
33 | RLADVLIKR (listed as Human cytomegalovirus) [SEQ ID NO: 77] | 15.4% | 2/13 | –
34 | SVSSAPLNK (listed as Human cytomegalovirus) [SEQ ID NO: 79] | 7.1% | 1/14 | –
35 | NYNEQHYRY (listed as Human cytomegalovirus) [SEQ ID NO: 20] | – | 5/13 | –
36 | IPDYRSVSL (listed as Human cytomegalovirus) [SEQ ID NO: 34] | 22.2% | 4/18 | –
37 | SFFPKLQGNY (listed as Human cytomegalovirus) [SEQ ID NO: 22] | 22.2% | 2/9 | –
38 | ALLGRLYFI (listed as Human cytomegalovirus) [SEQ ID NO: 19] | 6.7% | 1/15 | –
39 | RSVRLPYMYK (listed as Human cytomegalovirus) [SEQ ID NO: 78] | 13.3% | 2/15 | –
40 | VTDPEHLMM (listed as Human cytomegalovirus) [SEQ ID NO: 64] | 14.3% | 2/14 | –
41 | APFGRVSV (listed as Human cytomegalovirus) [SEQ ID NO: 35] | 20.0% | 3/15 | –
42 | AEPNFPKNVW (listed as Human cytomegalovirus) [SEQ ID NO: 46] | 14.3% | 2/14 | –
43 | MLRLLFTL (listed as Human cytomegalovirus) [SEQ ID NO: 86] | 7.1% | 1/14 | –
44 | ALSPSTSKV (listed as Human cytomegalovirus) [SEQ ID NO: 9] | 23.5% | 4/17 | –
45 | REQAAIPQIY (listed as Human cytomegalovirus) [SEQ ID NO: 50] | 6.3% | 1/16 | –
46 | RTFAGTLSR (listed as Human cytomegalovirus) [SEQ ID NO: 76] | 21.4% | 3/14 | –
47 | TPLLKRLPL (listed as Human cytomegalovirus) [SEQ ID NO: 82] | 28.6% | 4/14 | –
48 | LYVGQFLAY (listed as Human cytomegalovirus) [SEQ ID NO: 21] | 25.0% | 3/12 | –
49 | LPNDHHYAL (listed as Human cytomegalovirus) [SEQ ID NO: 38] | 5.9% | 1/17 | –
50 | RVYAYDTREK (listed as Human cytomegalovirus) [SEQ ID NO: 72] | 36.4% | 4/11 | –
